Laboratory results reported in publication PMC11788587, “Validating Low‐Dose Iohexol as a Marker for Glomerular Filtration Rate by In Vitro and In Vivo Studies” (Clinical and Translational Science, 2025).

Legend:
[1] = biological target: T1, hOAT3 (Homo sapiens, UniProt Q8TCC7); experiment: Substrate assessment: iohexol uptake in 293 cells expressing hOAT3 vs control; assay type: in vitro ADME; details: 10 μM iohexol, median (95% CI)
T1 construct: expressed in transfected cells; host or cells: HEK-293 (293) cells, pEBTetD plasmid, doxycycline-induced
T1 sequence (Q8TCC7 1-542): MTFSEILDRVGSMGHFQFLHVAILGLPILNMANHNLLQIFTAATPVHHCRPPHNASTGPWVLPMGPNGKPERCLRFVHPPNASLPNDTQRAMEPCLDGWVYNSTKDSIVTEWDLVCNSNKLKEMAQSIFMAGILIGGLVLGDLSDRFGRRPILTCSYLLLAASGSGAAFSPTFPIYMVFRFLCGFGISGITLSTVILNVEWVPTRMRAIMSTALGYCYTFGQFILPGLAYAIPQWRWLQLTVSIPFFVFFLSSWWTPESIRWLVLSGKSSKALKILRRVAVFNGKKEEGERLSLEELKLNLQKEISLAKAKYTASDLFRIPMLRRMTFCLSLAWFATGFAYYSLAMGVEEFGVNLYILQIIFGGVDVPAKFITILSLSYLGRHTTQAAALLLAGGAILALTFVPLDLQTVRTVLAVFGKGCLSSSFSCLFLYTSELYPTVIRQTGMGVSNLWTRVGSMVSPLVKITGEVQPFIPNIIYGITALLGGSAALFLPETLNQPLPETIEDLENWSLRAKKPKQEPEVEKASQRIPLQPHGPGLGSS
Source text: (§1) We characterized the inhibitory potential of iohexol on major drug transporters recommended by regulatory agencies, which were previously assessed in a clinical transporter phenotyping cocktail study. These transporters include hOAT1, hOAT3, hOCT1, hOCT2, hMATE1, hMATE2K, human organic anion transporter polypeptides (hOATP)1B1, hOATP1B3, and human multidrug resistance protein (hMDR)1. Additionally, we investigated whether iohexol is a substrate for any of the renal transporters among these, including hOAT1/3, hOCT1/2, and hMATE1/2K. Cell‐based uptake assays were used to assess the activities of hOAT1/3, hOCT1/2, hMATE1/2K, and hOATP1B1/1B3. Inside‐out membrane vesicle uptake assays were used to evaluate the activity of hMDR1.
(§2) For substrate assessments, iohexol was incubated with stably transfected HEK‐293 cells expressing one of the following transporters: hOAT1, hOAT3, hOCT1, hOCT2, hMATE1, or hMATE2K, as well as with control cells lacking transporter expression. Stably transfected cell lines containing pEBTetD plasmids with wild‐type human transporter cDNAs were generated as previously described. Transporter expression was induced by adding 1 μg/mL doxycycline to the growth medium for at least 20 h. Iohexol would be considered a substrate for these transporters if: (1) the ratio of iohexol uptake in cells expressing the transporter to that in control cells was ≥ 2, and (2) a known inhibitor of the transporter reduced iohexol uptake to ≤ 50% at concentrations ≥ 10 times its inhibition constant or half‐maximal inhibitory concentration.
(§3) Uptake assays were performed using stably transfected 293 cells, with or without the expression of one of the following transporters: hOAT1, hOAT3, hOCT1, hOCT2, hMATE1, or hMATE2K, as previously described.^1
(§4) For the substrate assessment, cells were incubated with 10 µM iohexol for 10 minutes and 30 minutes for each transporter. Inhibition assays were performed using specific standard substrates for each transporter: 10 µM para-aminohippuric acid (PAH) for hOAT1, 3 µM estrone-3-sulfate (E3S) for hOAT3, 50 µM metformin for hOCT1, 5 µM metformin for hOCT2, and 3 µM 1-methyl-4-phenylpyridinium (MPP+) for hMATE1 and hMATE2K. […]
(§5) R version 4.2.1 (R Foundation for Statistical Computing, Vienna, Austria) was used for statistical evaluations and data visualization. The data analysis approach for the in vitro study was detailed by Hsin CH et al..^1 In brief, for transport assays, the initial uptake rate was calculated by normalizing the substrate concentration to both the protein concentration and the incubation time for each dish or well. The transporter-mediated uptake rate (net uptake) was determined by performing an element-wise subtraction of uptake rates from different conditions. […]

[2] = biological target: T2, hOCT2 (Homo sapiens, UniProt O15244); experiment: Substrate assessment: iohexol uptake in 293 cells expressing hOCT2 vs control; assay type: in vitro ADME; details: 10 μM iohexol, median (95% CI)
T2 construct: expressed in transfected cells; host or cells: HEK-293 (293) cells, pEBTetD plasmid, doxycycline-induced
T2 sequence (O15244 1-555): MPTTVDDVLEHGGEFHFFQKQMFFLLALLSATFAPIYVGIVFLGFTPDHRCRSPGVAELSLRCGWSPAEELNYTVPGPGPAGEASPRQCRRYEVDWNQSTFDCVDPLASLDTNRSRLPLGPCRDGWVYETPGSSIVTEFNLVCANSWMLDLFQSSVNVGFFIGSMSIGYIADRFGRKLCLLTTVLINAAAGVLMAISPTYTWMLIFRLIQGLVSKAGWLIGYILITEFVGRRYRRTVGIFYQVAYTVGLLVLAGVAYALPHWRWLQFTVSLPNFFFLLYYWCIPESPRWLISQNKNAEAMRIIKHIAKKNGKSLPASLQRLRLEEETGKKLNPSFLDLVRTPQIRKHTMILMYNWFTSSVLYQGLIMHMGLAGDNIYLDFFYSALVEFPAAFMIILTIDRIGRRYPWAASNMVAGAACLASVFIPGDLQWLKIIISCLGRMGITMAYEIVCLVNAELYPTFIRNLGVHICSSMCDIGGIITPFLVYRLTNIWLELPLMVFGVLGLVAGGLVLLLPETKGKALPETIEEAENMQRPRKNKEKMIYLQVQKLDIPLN
Source text: as §1, §2, §3, §4, §5

CC(=O)N(CC(O)CO)c1c(I)c(C(=O)NCC(O)CO)c(I)c(C(=O)NCC(O)CO)c1I (centres unmarked) [iohexol]
Differences in intracellular accumulation (expression on minus off) ([1]; 10 minutes): 0.6 (0.1 to 2) pmol/mg protein
Uptake ratio (transporter-expressing vs non-expressing cells) ([1]; 10 minutes): 1.1 (1 to 1.4)
Differences in intracellular accumulation (expression on minus off) ([1]; 30 minutes): 0.89 (0.19 to 1.5) pmol/mg protein
Uptake ratio (transporter-expressing vs non-expressing cells) ([1]; 30 minutes): 1.2 (1.1 to 1.3)
Differences in intracellular accumulation (expression on minus off) ([2]; 10 minutes): 1.3 (0.007 to 2.6) pmol/mg protein
Uptake ratio (transporter-expressing vs non-expressing cells) ([2]; 10 minutes): 1.1 (1 to 1.2)
Differences in intracellular accumulation (expression on minus off) ([2]; 30 minutes): 1.5 (-1.4 to 2.9) pmol/mg protein
Uptake ratio (transporter-expressing vs non-expressing cells) ([2]; 30 minutes): 1.1 (0.9 to 1.3)
